Active and inactive are the calls of the source. No cut-off for these calls is given here.
Legend:
[1] = system: Equine infectious anemia virus; assay: In vitro anti-retroviral activity against equine infectious anemia virus(EIAV); compound was active; type: functional, organism-based
[2] = system: Equine infectious anemia virus; assay: In vitro anti-retroviral activity against equine infectious anemia virus(EIAV); Inactive; type: functional, organism-based

Cc1cc(O)c2c(=O)c3c(O)cc(O)c4c5c(O)cc(O)c6c(=O)c7c(O)cc(C)c8c1c2c(c34)c(c78)c65
Activity [1]: Active

Cc1c(O)c2c(=O)c3c(O)c(C)c(O)c4c5c(O)c(C)c(O)c6c(=O)c7c(O)c(C)c(O)c8c(c1O)c2c(c34)c(c78)c65
Activity [2]: inactive

O=c1c2c(O)cc(O)c3c4c(O)cc(O)c5c(=O)c6c(O)cc(O)c7c8c(O)cc(O)c1c8c(c23)c(c54)c67
Activity [2]: inactive

COc1cc(O)c2c(=O)c3c(O)cc(O)c4c5c(O)cc(O)c6c(=O)c7c(O)cc(OC)c8c1c2c(c34)c(c65)c78
Activity [1]: Active

From ChEMBL document CHEMBL1128072, “The synthesis and biological evaluation of hypericin analogs” (Bioorg Med Chem Lett, 1995)
